{"source": "paper PMC12091851", "about": "“Replacing a Cereblon Ligand by a DDB1 and CUL4 Associated Factor 11 (DCAF11) Recruiter Converts a Selective Histone Deacetylase 6 PROTAC into a Pan‐Degrader” (Chemmedchem, 2025)", "target": "T1, HDAC6 (Homo sapiens, UniProt Q9UBN7)", "T1 sequence (Q9UBN7 1-1215)": "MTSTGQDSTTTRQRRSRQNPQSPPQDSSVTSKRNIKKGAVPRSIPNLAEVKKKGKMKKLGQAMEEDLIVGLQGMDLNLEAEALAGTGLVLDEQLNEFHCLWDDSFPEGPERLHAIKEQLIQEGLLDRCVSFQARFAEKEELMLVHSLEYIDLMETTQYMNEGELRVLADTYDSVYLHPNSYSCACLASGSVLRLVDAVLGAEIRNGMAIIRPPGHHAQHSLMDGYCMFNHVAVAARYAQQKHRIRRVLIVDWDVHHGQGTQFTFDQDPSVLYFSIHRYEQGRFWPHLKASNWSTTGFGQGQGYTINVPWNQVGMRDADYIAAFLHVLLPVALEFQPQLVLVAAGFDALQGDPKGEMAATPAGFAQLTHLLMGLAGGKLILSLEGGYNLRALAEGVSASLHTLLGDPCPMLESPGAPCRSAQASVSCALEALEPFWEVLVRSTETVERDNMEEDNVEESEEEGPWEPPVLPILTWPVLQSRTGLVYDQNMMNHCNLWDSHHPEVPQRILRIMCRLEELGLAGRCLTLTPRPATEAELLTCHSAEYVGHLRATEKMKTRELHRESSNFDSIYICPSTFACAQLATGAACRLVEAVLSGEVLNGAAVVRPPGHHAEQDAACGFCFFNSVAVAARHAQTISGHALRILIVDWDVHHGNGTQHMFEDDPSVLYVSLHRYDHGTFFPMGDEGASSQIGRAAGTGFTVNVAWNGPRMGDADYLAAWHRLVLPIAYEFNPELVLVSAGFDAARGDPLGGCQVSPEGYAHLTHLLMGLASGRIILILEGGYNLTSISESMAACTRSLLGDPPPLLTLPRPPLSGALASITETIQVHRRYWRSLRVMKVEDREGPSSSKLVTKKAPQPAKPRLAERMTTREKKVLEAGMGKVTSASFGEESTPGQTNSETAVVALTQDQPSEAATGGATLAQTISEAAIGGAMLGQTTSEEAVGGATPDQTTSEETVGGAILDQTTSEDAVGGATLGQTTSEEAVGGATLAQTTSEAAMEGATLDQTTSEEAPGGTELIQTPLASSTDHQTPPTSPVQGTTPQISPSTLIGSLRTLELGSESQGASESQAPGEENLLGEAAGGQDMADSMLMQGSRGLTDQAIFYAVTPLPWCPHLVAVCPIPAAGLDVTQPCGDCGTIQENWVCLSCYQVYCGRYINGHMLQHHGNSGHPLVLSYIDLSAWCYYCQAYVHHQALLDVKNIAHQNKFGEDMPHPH", "test": "Simple Western immunoassay, HDAC6 levels in U-87MG cell lysates", "type": "cell-based", "set-up": "endogenous in cells; host or cells: MM.1S", "conditions": "10 μM, 24 h", "experimental": "Figure S5. Analysis of HDAC1 and 6 degradation in U-87MG cells. Simple western immunoassay analysis of U-87MG cell lysates. The cells were treated with the indicated compound (10 µM) or vehicle (DMSO) for 24 h. Top: Quantification of HDAC levels, presented as mean ± standard deviation of n = 2 biological replicates; Significance compared to vehicle: ns = p≥0.05 and *** = p≤0.001. Bottom:\nRepresentative images of n = 2 biological replicates.\n(1 picture or pasted object on this page, not shown here)\n2. Biological Experiments\nNo unexpected or unusually high safety hazards were encountered.\nThe human multiple myeloma cell line MM.1S (CRL-2974) was obtained from American Type Culture Collection (ATCC, Manassas, VA, USA). […]\nLouis, MO, USA) according to manufacturer´s instructions. Protein content was determined by Pierce™ BCA Protein Assay Kit (Catalog# 23225, Thermo Fisher Scientific Inc.) according to manufacturer´s guidelines. […]\nFluorescence Separation 8x25 Capillary Cartridges (Catalog# SM-FL004-1, Protein Simple, Bio-Techne, Minneapolis, MN, USA) were used for separation and the Anti-Mouse Detection Module (Catalog# DM-002, Protein Simple) was used for detection with addition of 20x Anti-Rabbit HRP […]\nConjugate (Catalog# 043-426, Protein Simple) according to manufacturer´s instructions. […] Evaluation and quantification was performed with the compass software (6.2.0, Protein Simple). […]", "data": [{"compound": "O=C(CCCCCCNC(=O)c1ccc(NC(=O)CCCCCCCCCCCN(C(=O)CCl)C(C(=O)NCc2ccccc2)c2ccc(Cl)c(Cl)c2)cc1)NO", "note": "(stereo not shown) [Compound 1j]", "values": [{"measurement": "HDAC6 degradation in U-87MG cells", "result": "significant HDAC1 and 6 degradation"}]}]}
